The results in this text go back to patent US9403805B2, “Antiviral compounds” (Hoffmann-La Roche Inc., priority 2012, dated 2016).

Each structure is given as a SMILES string.

This assay concerns HCV GT1b replicon. Nature of the assay: HCV GT1b replicon luciferase reporter assay (2209-23 cells). The assay is classed as cell-based. To be noted: Hepatitis C virus, genotype 1a / genotype 1b; 2209-23 cells (Huh-7 with GT-1b Con1 subgenomic replicon), Renilla luciferase read 72 hours after compound addition; read-out: GT-1a - EC50 (nM) HCV, GT1b, IC50 (µM). An excerpt: Determination of compounds HCV GT1b inhibitory replicon activity using the replicon luciferase reporter assay
The 2209-23 cell line was developed at Roche by stable transfection of the hepatoma cell line Huh-7 with a GT-1b Con1 subgenomic bicistronic replicon as previously described. Subgenomic replicon cell line was established in cured Huh7 cells, obtained from R. Bartenschlager (J Virol. 2003 March; 77 (5):3007-19) The GT-1a H77 subgenomic replicon vector pRLuc H77 1b 75 S/I, was created by replacing the nonstructural region of the GT-1b Con1 subgenomic replicon by the one of the H77 strain, except for the first 75 amino acids of the NS3 protein that are from GT-1b Conl strain. (J. Virol. 2001 77:5352-59) The GT-1a pRLuc H77 1b 75 S/I subgenomic replicon cell line was established in cured Huh7 cells, obtained from R. Bartenschlager. (J Virol. 2003 March; 77 (5):3007-19)
All the subgenomic replicon cell lines were cultured in Dulbecco's Modified Eagle Medium (DMEM-Glutamax™-I; Invitrogen Cat #10569-010). The medium was supplemented with 10% Fetal Bovine Serum (Invitrogen Cat #10082-147), 1% penicillin/streptomycin (Mediatech Cat #30-002-CI) and 500 μg/ml of G418 (Mediatech Cat #30-234-CI). Cells were maintained at 37° C. in a humidified 5% CO2 atmosphere.
2209-23 cells were plated at a cell density of 5000 cells per well in 96 well plates (Becton Dickinson, Cat #35 3296). Cells were plated in 90 μl of Dulbecco's Modified Eagle Medium (DMEM-Glutamax™-I), (Invitrogen Cat #10569-010) medium was supplemented with 5% Fetal Bovine Serum (Invitrogen Cat #10082-147), 1% penicillin/streptomycin (Mediatech Cat #30-002-CI). The pRluc H77 1b 75 SA cells were plated in 96-well plate at 3000 cells/well in DMEM-Glutamax™-I containing 5% FBS and 1% penicillin/streptomycin in 90 μl final volume. Cells were allowed to equilibrate for 24 hours at 37° C. and 5% CO2 at which time compounds were added. Compounds (or medium as a control) were added 24 hours post-plating in 3 fold dilutions at a final DMSO concentration of 1% in 10 μl volume. Renilla luciferase reporter signal was read 72 hours after addition of compounds using the Renilla Luciferase Assay System (Promega, cat #E2820). EC50 values were defined as the compound concentration at which a 50% reduction in the levels of renilla luciferase reporter was observed as compared to control samples in the absence of compound and was determined by non-linear fitting of compound dose-response data. The EC50 was approximated if maximum percentage inhibition was less than 90% and more than 70%.
(Replicon systems follow genome replication, usually without infectious particles.)

Usually IC50 stands for the concentration at which inhibition is half-maximal. Consider `CC(C)(C)OC(=O)[C@@H]1C[C@H](NC(=O)c2ccc3ccccc3c2O)CN1CC1CCCCC1` [Compound I-1, (2S,4S)-1-Cyclohexylmethyl-4-[(1-hydroxy-naphthalene-2-carbonyl)-amino]-pyrrolidine-2-carboxylic acid tert-butyl ester], for which the IC50 stood at 47 nM. `COC(=O)[C@@H]1C[C@H](NC(=O)c2ccc3ccccc3c2O)CN1CCC(C)(C)C` [Compound I-2, (2S,4S)-1-(3,3-Dimethyl-butyl)-4-[(1-hydroxy-naphthalene-2-carbonyl)-amino]-pyrrolidine-2-carboxylic acid methyl ester]: the IC50 is 79 nM.

On to `CCOC(=O)[C@@H]1C[C@H](NC(=O)c2ccc3ccccc3c2O)CCN1CC1CCCCC1` [Compound I-3, (2S,4R)-1-Cyclohexylmethyl-4-[(1-hydroxy-naphthalene-2-carbonyl)-amino]-piperidine-2-carboxylic acid ethyl ester], for which the IC50 turned out to be 51 nM. The figure for `CCOC(=O)[C@@H]1C[C@H](NC(=O)c2ccc3ccccc3c2O)CN1CC1CCCCC1` [Compound I-4, (2S,4S)-1-Cyclohexylmethyl-4-[(1-hydroxy-naphthalene-2-carbonyl)-amino]-pyrrolidine-2-carboxylic acid ethyl ester] is 29 nM; for `O=C(N[C@H]1C[C@@H](c2nc3ccccc3o2)N(CC2CCCCC2)C1)c1ccc2ccccc2c1O` [Compound I-5, 1-Hydroxy-naphthalene-2-carboxylic acid ((3S,5S)-5-benzooxazol-2-yl-1-cyclohexylmethyl-pyrrolidin-3-yl)-amide] it is 52 nM; for `COC(=O)[C@@H]1C[C@H](NC(=O)c2ccc3ccccc3c2O)CCN1CC1CCCCC1` [Compound I-6, (2S,4R)-1-Cyclohexylmethyl-4-[(1-hydroxy-naphthalene-2-carbonyl)-amino]-piperidine-2-carboxylic acid methyl ester] it is 55 nM. As for `Cc1cnc([C@@H]2C[C@H](NC(=O)c3ccc4ccccc4c3O)CN2CC2CCCCC2)o1` [Compound I-7, 1-Hydroxy-naphthalene-2-carboxylic acid [(3S,5S)-1-cyclohexylmethyl-5-(5-methyl-oxazol-2-yl)-pyrrolidin-3-yl]-amide], the IC50 was determined as 70 nM. In the case of `O=C(N[C@H]1C[C@@H](c2ncc(-c3ccccc3)o2)N(CC2CCCCC2)C1)c1ccc2ccccc2c1O` [Compound I-8, 1-Hydroxy-naphthalene-2-carboxylic acid [(3S,5S)-1-cyclohexylmethyl-5-(5-phenyl-oxazol-2-yl)-pyrrolidin-3-yl]-amide], the IC50 was 86 nM. `O=C(N[C@H]1C[C@@H](c2ncco2)N(CC2CCCCC2)C1)c1ccc2ccccc2c1O` [Compound I-9, 1-Hydroxy-naphthalene-2-carboxylic acid ((3S,5S)-1-cyclohexylmethyl-5-oxazol-2-yl-pyrrolidin-3-yl)-amide]: the IC50 amounted to 114 nM. The figure for `COC(=O)[C@@H]1C[C@H](NC(=O)c2ccc3ccccc3c2O)CN1CC1CCCCC1` [Compound I-10, (2S,4S)-1-Cyclohexylmethyl-4-[(1-hydroxy-naphthalene-2-carbonyl)-amino]-pyrrolidine-2-carboxylic acid methyl ester] is 120 nM; for `COC(=O)[C@@H]1C[C@H](NC(=O)c2ccc3ccccc3c2O)CN1Cc1ccccc1` [Compound I-11, (2S,4S)-1-Benzyl-4-[(1-hydroxy-naphthalene-2-carbonyl)-amino]-pyrrolidine-2-carboxylic acid methyl ester] it is 121 nM. In the case of `CCOC(=O)[C@@H]1C[C@H](NC(=O)c2ccc3ccccc3c2O)CN1CC1CCCC1` [Compound I-12, (2S,4S)-1-Cyclopentylmethyl-4-[(1-hydroxy-naphthalene-2-carbonyl)-amino]-pyrrolidine-2-carboxylic acid ethyl ester], the IC50 was 129 nM.

With `O=C(N[C@H]1C[C@@H](C(=O)NCc2ccccc2)N(CC2CCCCC2)C1)c1ccc2ccccc2c1O` [Compound I-13, (2S,4S)-1-Cyclohexylmethyl-4-[(1-hydroxy-naphthalene-2-carbonyl)-amino]-pyrrolidine-2-carboxylic acid benzylamide], the IC50 stood at 163 nM.

As to `CCOC(=O)[C@@H]1C[C@H](NC(=O)c2ccc3ccccc3c2O)CN1C(=O)C1CCCCC1` [Compound I-14, (2S,4S)-1-Cyclohexanecarbonyl-4-[(1-hydroxy-naphthalene-2-carbonyl)-amino]-pyrrolidine-2-carboxylic acid ethyl ester], the IC50 was 184 nM. On to `CC(C)NC(=O)[C@@H]1C[C@H](NC(=O)c2ccc3ccccc3c2O)CN1CC1CCCCC1` [Compound I-15, (2S,4S)-1-Cyclohexylmethyl-4-[(1-hydroxy-naphthalene-2-carbonyl)-amino]-pyrrolidine-2-carboxylic acid isopropylamide], for which the IC50 came out at 187 nM.

Consider `CCCNC(=O)[C@@H]1C[C@H](NC(=O)c2ccc3ccccc3c2O)CN1CC1CCCCC1` [Compound I-16, (2S,4S)-1-Cyclohexylmethyl-4-[(1-hydroxy-naphthalene-2-carbonyl)-amino]-pyrrolidine-2-carboxylic acid propylamide], for which the IC50 worked out at 205 nM. With `CCOC(=O)[C@@H]1C[C@H](NC(=O)c2ccc3ccccc3c2O)CN1CC1CCC1` [Compound I-17, (2S,4S)-1-Cyclobutylmethyl-4-[(1-hydroxy-naphthalene-2-carbonyl)-amino]-pyrrolidine-2-carboxylic acid ethyl ester], the IC50 amounted to 219 nM. As for `CCNC(=O)[C@@H]1C[C@H](NC(=O)c2ccc3ccccc3c2O)CN1CC1CCCCC1` [Compound I-18, (2S,4S)-1-Cyclohexylmethyl-4-[(1-hydroxy-naphthalene-2-carbonyl)-amino]-pyrrolidine-2-carboxylic acid ethylamide], the figure is 221 nM. With `CCNC(=O)[C@@H]1C[C@H](NC(=O)c2ccc3ccccc3c2O)CCN1CC1CCCCC1` [Compound I-19, (2S,4R)-1-Cyclohexylmethyl-4-[(1-hydroxy-naphthalene-2-carbonyl)-amino]-piperidine-2-carboxylic acid ethylamide], the IC50 turned out to be 223 nM. `COC(=O)[C@H]1C[C@H](NC(=O)c2ccc3ccccc3c2O)CN1CC1CCCCC1` [Compound I-20, (2R,4S)-1-Cyclohexylmethyl-4-[(1-hydroxy-naphthalene-2-carbonyl)-amino]-pyrrolidine-2-carboxylic acid methyl ester]: the IC50 is 233 nM. For the compound `COC(=O)[C@]1(C)C[C@H](NC(=O)c2ccc3ccccc3c2O)CN1CC1CCCCC1` [Compound I-21, (2S,4S)-1-Cyclohexylmethyl-4-[(1-hydroxy-naphthalene-2-carbonyl)-amino]-2-methyl-pyrrolidine-2-carboxylic acid methyl ester], the IC50 came out at 247 nM. For the compound `CCOC(=O)[C@@H]1C[C@H](NC(=O)c2ccc3ccccc3c2O)CN1CC(C)C` [Compound I-22, (2S,4S)-4-[(1-Hydroxy-naphthalene-2-carbonyl)-amino]-1-isobutyl-pyrrolidine-2-carboxylic acid ethyl ester], the IC50 was determined as 299 nM. As for `COC(=O)[C@@H]1C[C@H](NC(=O)c2ccc3ccccc3c2N)CN1CC1CCCCC1` [Compound I-23, (2S,4S)-4-[(1-Amino-naphthalene-2-carbonyl)-amino]-1-cyclohexylmethyl-pyrrolidine-2-carboxylic acid methyl ester], the IC50 is 336 nM. Consider `CCOC(=O)[C@@H]1C[C@H](NC(=O)c2ccc3cccnc3c2O)CN1CC1CCCCC1` [Compound I-24, (2S,4S)-1-Cyclohexylmethyl-4-[(8-hydroxy-quinoline-7-carbonyl)-amino]-pyrrolidine-2-carboxylic acid ethyl ester], for which the concentration for half-maximal inhibition (IC50) amounted to 367 nM. `NC(=O)[C@@H]1C[C@H](NC(=O)c2ccc3ccccc3c2O)CN1CC1CCCCC1` [Compound I-25, (2S,4S)-1-Cyclohexylmethyl-4-[(1-hydroxy-naphthalene-2-carbonyl)-amino]-pyrrolidine-2-carboxylic acid amide]: the IC50 worked out at 509 nM.
